Experimental data published in patent US20030096015A1, “Cytogenic/nucleogenic healing” (priority 1997, published 2003).

Test system: epithelial cells
Assay type: cell-based, human

Compound: OC[C@H]1O[C@@](CO)(O[C@H]2O[C@H](CO)[C@@H](O)[C@H](O)[C@H]2O)[C@@H](O)[C@@H]1O [5% Sucrose, sucrose]
- time after which sticky clumps were invaded by fungi and bacteria (0.5% solution): 48 h
- cell replication / tissue formation observed (0.5% solution, isolated epithelial cells, ambient temperature): Rapid cell replication was observed in form of sticky clumps with no distinct differentiation into tissue formation
- Potential for Tissue Growth (ambient temperature (24° C.)): sticky lump
